What is called MIC is the smallest concentration in the dilution series that meets the test's criterion for growth inhibition. By IC50 is commonly meant the point on the concentration scale where inhibition reaches its midpoint.

The text below walks through data of US9403850B2, “Beta-lactamase inhibitors” (priority 2013, dated 2016).

Assay [1] relates to S. aureus MSSA-7 producing penicillinase PC-1. Put plainly: Broth microdilution MIC assay, partner piperacillin. It counts as cell-based. The conditions noted are these: Staphylococcus aureus, fixed piperacillin 4 μg/mL, read-out: MIC of Exemplary Compounds in presence of fixed β-lactams, Fixed Pip, S. aureus MSSA-7 PC-1. Background: In broth dilution the organism is exposed to a series of concentrations in liquid medium.

The subject of assay [2] is E. cloacae 144200 expressing Class C P99 AmpC. Put plainly: Broth microdilution MIC assay, partner ceftazidime. It counts as cell-based. The conditions noted are these: for MIC: Enterobacter cloacae, read-out: MIC of Exemplary Compounds in presence of fixed β-lactams, Fixed CAZ, E. cl. 144200 p99 AmpC.
Assay [3] has as its target T1, VIM-2 (Escherichia coli, UniProt Q5U7L7).
T1 construct: made in house; host or cells: E. coli BL21(DE3)
Put plainly: β-Lactamase enzyme inhibition assay, VIM-2 (nitrocefin substrate). The note with it: nitrocefin substrate 100 μM, 15 min preincubation at 37° C.; read-out: IC50, Class B VIM-2. It counts as biochemical. A digest of the protocol: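 Purified VIM-2 (Q sepharose anion exchange, HEPES pH 7.5) preincubated with inhibitor 15 min at 37° C. Nitrocefin added at 100 μM final; absorbance at 486 nm monitored 10 min. IC50 from inhibition of initial hydrolysis rate versus inhibitor-free controls.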

Assay [4] concerns K. pneumoniae 156319 expressing KPC-3. Put plainly: Broth microdilution MIC assay, partner meropenem. It counts as cell-based. The conditions noted are these: Klebsiella pneumoniae, read-out: MIC of Exemplary Compounds in presence of fixed β-lactams, Fixed Mero, K.P. 156319 KPC-3.
Assay [5] concerns K. pneumoniae A-1797 expressing KPC-2 and VIM-4. Put plainly: Broth microdilution MIC assay, partner meropenem. It counts as cell-based. The conditions noted are these: Klebsiella pneumoniae, read-out: MIC of Exemplary Compounds in presence of fixed β-lactams, Fixed Mero, K.P. A-1797 KPC-2 VIM-4.
For assay [6], the system named is P. aeruginosa Ps296 expressing VIM-2. Put plainly: Broth microdilution MIC assay, partner meropenem. The class given is cell-based. The note with it: Pseudomonas aeruginosa, read-out: MIC of Exemplary Compounds in presence of fixed β-lactams, Fixed Mero, P. aerug. Ps296 VIM-2.
The test system of assay [7] is E. coli ESBL4 expressing CTX-M-15. Put plainly: Broth microdilution MIC assay, partner ceftazidime. It counts as cell-based. The note with it: Escherichia coli, read-out: MIC of Exemplary Compounds in presence of fixed β-lactams, Fixed CAZ, E. coli ESBL4 CTX-M-15.

SMILES strings stand for the structures.

Consider `NCc1cc(CN)cc(C(=O)N[C@H]2Cc3cccc(C(=O)O)c3OB2O)c1` [Example 44, (R)-3-(3,5-bis(aminomethyl)benzamido)-2-hydroxy-3,4-dihydro-2H-benzo[e][1,2]oxaborinine-8-carboxylic acid], for which the MIC in assay [1] is more than 32 µg/mL; in assay [4], more than 32 µg/mL; in assay [5] it was more than 32 µg/mL; in assay [6], more than 32 µg/mL; in assay [7], 8 to 32 µg/mL. The “MIC of Exemplary Compounds in presence of fixed β-lactams, Fixed CAZ, E. cl. 144200 p99 AmpC” value in assay [2] (fixed ceftazidime 4 μg/mL) is on record as “A (A represents an MIC of the fixed β-lactam antibiotic in the presence of >32 μg/mL of a β-lactamase inhibitor of exemplary compounds)”. Also, the concentration for half-maximal inhibition (IC50) in assay [3] was in the range of 1000 to 10000 nM.
As for `N=C(N)NCc1cc(CNC(=N)N)cc(C(=O)N[C@H]2Cc3cccc(C(=O)O)c3OB2O)c1` [Example 45, (R)-3-(3,5-bis(guanidinomethyl)benzamido)-2-hydroxy-3,4-dihydro-2H-benzo[e][1,2]oxaborinine-8-carboxylic acid], the MIC was more than 32 µg/mL in assay [1]; less than 4 µg/mL in assay [2]; less than 4 µg/mL in assay [4]; less than 4 µg/mL in assay [5]; less than 4 µg/mL in assay [6]; less than 4 µg/mL in assay [7]. In addition, the IC50 in assay [3] was less than 100 nM.
In the case of `O=C(Cc1ccc2cc[nH]c2c1)N[C@H]1Cc2cccc(C(=O)O)c2OB1O` [Example 46, (R)-2-Hydroxy-3-(2-1H-indol-6-yl-acetylamino)-3,4-dihydro-2H-benzo[e][1,2]oxaborinine-8-carboxylic acid], the MIC in assay [1] was 8 to 32 µg/mL; in assay [2] it was less than 4 µg/mL; in assay [4], less than 4 µg/mL; in assay [5], less than 4 µg/mL; in assay [6], less than 4 µg/mL; in assay [7], less than 4 µg/mL. Also, the IC50 in assay [3] is less than 100 nM.
Consider `O=C(N[C@H]1Cc2cccc(C(=O)O)c2OB1O)c1ccc(-c2ncc[nH]2)cc1` [Example 47, (R)-2-Hydroxy-3-[4-(1H-imidazol-2-yl)-benzoylamino]-3,4-dihydro-2H-benzo[e][1,2]oxaborinine-8-carboxylic acid], for which the MIC in assay [1] was less than 4 µg/mL; in assay [2], less than 4 µg/mL; in assay [4] it was less than 4 µg/mL; in assay [5], more than 32 µg/mL; in assay [6], 8 to 32 µg/mL; in assay [7] it was less than 4 µg/mL. The IC50 in assay [3] fell in the range of 100 to 1000 nM.
On to `CN1Cc2ccc(CC(=O)N[C@H]3Cc4cccc(C(=O)O)c4OB3O)cc2C1` [Example 48, (R)-2-Hydroxy-3-[2-(2-methyl-2,3-dihydro-1H-isoindol-5-yl)-acetylamino]-3,4-dihydro-2H-benzo[e][1,2]oxaborinine-8-carboxylic acid], for which the MIC in assay [1], in assay [2], in assay [4], in assay [5], in assay [6] and in assay [7] was less than 4 µg/mL in each case. Moreover, the IC50 in assay [3] is less than 100 nM.
For `NCCN1Cc2ccc(CC(=O)N[C@H]3Cc4cccc(C(=O)O)c4OB3O)cc2C1` [Example 49, (R)-3-{2-[2-(2-Amino-ethyl)-2,3-dihydro-1H-isoindol-5-yl]-acetylamino}-2-hydroxy-3,4-dihydro-2H-benzo[e][1,2]oxaborinine-8-carboxylic acid], the minimum inhibitory concentration (MIC) in assay [1] is less than 4 µg/mL; in assay [2] it was less than 4 µg/mL; in assay [4], less than 4 µg/mL; in assay [5], more than 32 µg/mL; in assay [6] it was less than 4 µg/mL; in assay [7] it was less than 4 µg/mL. In addition, the IC50 in assay [3] was in the range of 100 to 1000 nM.
Take `O=C(N[C@H]1Cc2cccc(C(=O)O)c2OB1O)c1cnc2c(c1)CNC2` [Example 50, (3R)-3-(6,7-dihydro-5H-pyrrolo[3,4-b]pyridine-3-carbonylamino)-2-hydroxy-3,4-dihydro-1,2-benzoxaborinine-8-carboxylic acid]: the MIC is less than 4 µg/mL in assay [1]; less than 4 µg/mL in assay [2]; less than 4 µg/mL in assay [4]; more than 32 µg/mL in assay [5]; less than 4 µg/mL in assay [6]; less than 4 µg/mL in assay [7]. For the same molecule, in assay [3], the IC50 is 100 to 1000 nM.
On to `O=C(Cc1ccc2c(c1)CNCC2)N[C@H]1Cc2cccc(C(=O)O)c2OB1O` [Example 51, (R)-2-Hydroxy-3-(2-1,2,3,4-tetrahydro-isoquinolin-7-yl-acetylamino)-3,4-dihydro-2H-benzo[e][1,2]oxaborinine-8-carboxylic acid], for which the MIC in assay [1], in assay [2], in assay [4], in assay [5], in assay [6] and in assay [7] was less than 4 µg/mL in each case. The IC50 in assay [3] is less than 100 nM.
`O=C(N[C@H]1Cc2cccc(C(=O)O)c2OB1O)c1cnco1` [Example 52, (R)-2-Hydroxy-3-[(oxazole-5-carbonyl)-amino]-3,4-dihydro-2H-benzo[e][1,2]oxaborinine-8-carboxylic acid]: the MIC in assay [1] was less than 4 µg/mL; in assay [2] it was less than 4 µg/mL; in assay [4], less than 4 µg/mL; in assay [5], more than 32 µg/mL; in assay [6] it was 8 to 32 µg/mL; in assay [7] it was less than 4 µg/mL. Also, in assay [3], the IC50 was in the range of 100 to 1000 nM.
For the molecule `O=C(O)c1ccccc1C(=O)N[C@H]1Cc2cccc(C(=O)O)c2OB1O` [Example 53, (R)-3-(2-carboxybenzamido)-2-hydroxy-3,4-dihydro-2H-benzo[e][1,2]oxaborinine-8-carboxylic acid], the MIC in assay [1] is less than 4 µg/mL; in assay [2], less than 4 µg/mL; in assay [4] it was less than 4 µg/mL; in assay [5] it was 8 to 32 µg/mL; in assay [6], more than 32 µg/mL; in assay [7], less than 4 µg/mL. For the same molecule, the IC50 in assay [3] was in the range of 1000 to 10000 nM.
Regarding `NCCNC(=O)c1ccccc1C(=O)N[C@H]1Cc2cccc(C(=O)O)c2OB1O` [Example 54, (R)-3-(2-(2-aminoethylcarbamoyl)benzamido)-2-hydroxy-3,4-dihydro-2H-benzo[e][1,2]oxaborinine-8-carboxylic acid], the MIC is more than 32 µg/mL in assay [1]; less than 4 µg/mL in assay [2]; 8 to 32 µg/mL in assay [4]; more than 32 µg/mL in assay [5]; less than 4 µg/mL in assay [6]; less than 4 µg/mL in assay [7]. Also, the IC50 in assay [3] lay within 1000 to 10000 nM.
For the molecule `CC(C)NCc1cc(C(=O)N[C@H]2Cc3cccc(C(=O)O)c3OB2O)ccc1CN` [Example 55, (R)-3-(4-(aminomethyl)-3-((isopropylamino)methyl)benzamido)-2-hydroxy-3,4-dihydro-2H-benzo[e][1,2]oxaborinine-8-carboxylic acid], the MIC in assay [1] was more than 32 µg/mL; in assay [2], less than 4 µg/mL; in assay [4], 8 to 32 µg/mL; in assay [5] it was more than 32 µg/mL; in assay [6], less than 4 µg/mL; in assay [7], less than 4 µg/mL. Further, the IC50 in assay [3] lay within 100 to 1000 nM.
On to `CC(C)NCc1ccc(C(=O)N[C@H]2Cc3cccc(C(=O)O)c3OB2O)cc1CNC(C)C` [Example 56, (R)-3-(3,4-bis((isopropylamino)methyl)benzamido)-2-hydroxy-3,4-dihydro-2H-benzo[e][1,2]oxaborinine-8-carboxylic acid], for which the MIC in assay [1], in assay [2], in assay [4], in assay [5], in assay [6] and in assay [7] was less than 4 µg/mL throughout. Also, the IC50 in assay [3] fell in the range of 100 to 1000 nM.
For the molecule `NCCNc1ccc(CC(=O)N[C@H]2Cc3cccc(C(=O)O)c3OB2O)cc1` [Example 57, (R)-3-(2-(4-(2-aminoethylamino)phenyl)acetamido)-2-hydroxy-3,4-dihydro-2H-benzo[e][1,2]oxaborinine-8-carboxylic acid], the MIC in assay [1] is less than 4 µg/mL; in assay [2], less than 4 µg/mL; in assay [4], 8 to 32 µg/mL; in assay [5] it was less than 4 µg/mL; in assay [6], less than 4 µg/mL; in assay [7] it was less than 4 µg/mL. Also, the IC50 in assay [3] lay in the range of 1000 to 10000 nM.
In the case of `NCCOc1ccc(CC(=O)N[C@H]2Cc3cccc(C(=O)O)c3OB2O)cc1OCCN` [Example 58, (R)-3-(2-(3,4-bis(2-aminoethoxy)phenyl)acetamido)-2-hydroxy-3,4-dihydro-2H-benzo[e][1,2]oxaborinine-8-carboxylic acid], the MIC in assay [1] is less than 4 µg/mL; in assay [2] it was less than 4 µg/mL; in assay [4] it was less than 4 µg/mL; in assay [5], 8 to 32 µg/mL; in assay [6] it was less than 4 µg/mL; in assay [7] it was less than 4 µg/mL. For the same molecule, in assay [3], the IC50 lay in the range of 100 to 1000 nM.
Consider `NCCOc1ccc(CC(=O)N[C@H]2Cc3cccc(C(=O)O)c3OB2O)cc1O` [Example 59, (R)-3-(2-(4-(2-aminoethoxy)-3-hydroxyphenyl)acetamido)-2-hydroxy-3,4-dihydro-2H-benzo[e][1,2]oxaborinine-8-carboxylic acid], for which the MIC was less than 4 µg/mL in assay [1]; less than 4 µg/mL in assay [2]; less than 4 µg/mL in assay [4]; 8 to 32 µg/mL in assay [5]; less than 4 µg/mL in assay [6]; less than 4 µg/mL in assay [7]. For the same molecule, in assay [3], the IC50 fell in the range of 100 to 1000 nM.
